# Data from patent US10314883B2, “Compositions and methods for regulating blood pressure” (University of Virginia Patent Foundation, priority 2015, dated 2019).
# Read-outs that look alike come from different tables or passages of the source. No end group written: not given here.
# Key:
# [1] = system: thoracodorsal arteries (TDA); experiment: Pressure myography: agonist-induced constriction of pressurized TDAs from C57Bl/6 mice with pannexin inhibitors or Panx1 mimetic peptides; format: cell-based, mouse; conditions: for effect on phenylephrine-induced constriction of pressurized TDAs: TAT-linked peptides, C57Bl/6 TDAs
# Procedure: The contractile responses of pressurized thoracodorsal arteries (TDA) were measured as previously described. Briefly, TDA were isolated and placed in cold Krebs-HEPES until cannulation in a pressure arteriograph (Danish MyoTechnology). After a 30 minute equilibration period, cumulative concentrations of contractile agonists were applied to the TDA pressurized at 80 mmHg, and the vessel was visualized with an Olympus IX-71 microscope attached to a Hamamatsu EM-CCD camera coupled to Slidebook imaging software. […] Lastly, maximal diameter was measured at the end of each experiment in calcium-free Krebs-HEPES supplemented with EGTA (1 mmol/L) and sodium nitroprusside (10 μmol/L). In cases where the vessels were not constricting to the contractile agonist, their viability was assessed by applying 40 mM KCl and only TDA reaching 30% of the maximal diameter were considered for analysis. The contractile responses, as well as the basal tone, are expressed as a percentage of the maximal diameter.
# Using pressure arteriography on TDA dissected from C57Bl/6 mice (as described; and aortic ring contraction, as described), we measured the effect of pannexin inhibitors, probenecid and 10Panx1, on the contractile response upon stimulation with different vasoconstrictors: phenylephrine (FIG. 1A), noradrenaline (also called norepinephrine) (FIG. 1B), serotonin (also known as 5-HT) (FIG. 1C) and endothelin-1 (FIG. 1D). […] In contrast, ^10Panx1 and probenecid had no effect on contraction of TDA measured in response to cumulative concentrations of serotonin or endothelin-1 (FIGS. 1C-D; Table 1).
# To determine the region of Panx1 necessary for channel activation in response to α1AR stimulation, we produced short peptides derived from the intracellular regions of the Panx1 channel. We generated two peptides mimicking unique mouse Panx1 (mPanx1) sequences in the first intracellular loop (IL1 and IL2) and two peptides mimicking unique mPanx1 sequences in the C-terminal region, one in second intracellular loop (CT1) and one in the C-terminal tail (CT2) (FIG. 4A scissors indicate caspase 3 cleavage site; Table 3). All peptides also contained a TAT sequence to facilitate entry into cells and we verified the intracellular localization of each peptide by immunofluorescence detection of the TAT sequence in TDAs pre-incubated with each peptide (FIG. 7A). We tested the effect of each peptide on phenylephrine-induced contractile responses in pressurized TDAs from C57Bl/6 mice (FIGS. 4B-E). […] Note that these differences in effects of phenylephrine were similar in magnitude to those observed in arteries from SMC-specific Panx1-knockout mice and littermate controls (FIG. 2C, Table 2).
# [2] = system: thoracodorsal arteries (TDA); experiment: ATP release from intact TDA (luciferin:luciferase); format: cell-based, mouse; conditions: for ATP release from intact TDAs in response to agonist: five minutes of agonist, ARL67156 300 μmol/L
# Procedure: Mouse TDAs of equal length were isolated and washed thoroughly to eliminate red blood cells. Vessels were placed in a well of a 96-well plate containing Krebs-HEPES solution supplemented with 1% BSA at 37° C. for 30 minutes to allow for degradation of any ATP released as a result of mechanical stimulation during manipulation of the vessel. For measurements performed on HEK cells: 24 hours after transfection, cells cultured in 24-well plates were cautiously washed twice with warm Krebs-HEPES-BSA and 300 μl of Krebs-HEPES-BSA was added to each well after the last wash as previously described. The plate was then kept in the incubator at 37° C. with 5% CO2 for 30 minutes to allow for degradation of ATP eventually released during the washes.
# The ectonucleotidase inhibitor ARL67156 (300 μmol/L) was applied to each well. When indicated, ^10Panx1 (300 μmol/L) or the peptides analog to intracellular regions of Panx1 (3 μmol/L) were added along with the ARL67156. After a 30 minute incubation at 37° C. with the inhibitor(s), phenylephrine (100 μmol/L) or equivalent volume of Krebs-HEPES-BSA was added and the plate was kept at 37° C. After five minutes of phenylephrine stimulation, the media surrounding the TDA or the cells was transferred to an Eppendorf tube and centrifuged for five minutes at 5,000×g to eliminate eventual cell debris. Fifty microliters of the supernatant was transferred to a white-wall 96 well plate and placed in a FluoStar Omega luminometer. The ATP concentration was measured by adding 50 μL of luciferin:luciferase reagent (ATP bioluminescence assay kit HSII; Roche), which was injected into each well and the luminescence was immediately recorded. Data are expressed as a percent increase in ATP concentration compared to unstimulated condition. Each stimulated condition was compared to unstimulated condition performed on the same day, and all experiments were performed on at least 15 wells of HEK cells or three TDAs. Data were analyzed using a Kruskall Wallis test (non-parametric one-way ANOVA) followed by Dunn's post-hoc test.
# To determine if the TDA response involved release of ATP, we dissected TDAs from C57Bl/6 mice and measured the accumulation of extracellular ATP in response to various agonists in the medium (FIG. 1E, inset). The TDAs were placed in a well of a 96 well plate in Krebs-HEPES solution and treated with the ectonucleotidase inhibitor ARL67156 for 30 minutes. Next, arteries were treated with a contractile agonist for five minutes and the amount of ATP in the media surrounding the vessel was determined using the ATP bioluminescence assay kit HSII (Roche).
# [3] = system: thoracodorsal arteries (TDA); conditions: for EC50: read-out: EC50 of agonist for TDA constriction
# [4] = system: thoracodorsal arteries (TDA); experiment: tissue or blood; conditions: Mus musculus
# [5] = in presence of ^10Panx1 (300 μmol/L) or probenecid (2 mmol/L)
# [6] = pannexin inhibitors, ^10Panx1 300 μmol/L, probenecid 2 mmol/L
# [7] = TDAs from Cre^+/Panx1^FL mice, tamoxifen-injected (SMC Panx1 knockout)
# [8] = TDAs from Cre^+/Panx1^WT mice, tamoxifen-injected
# [9] = TDAs from Cre^−/Panx1^FL mice, tamoxifen-injected
# [10] = TDAs from Cre^−/Panx1^WT mice, tamoxifen-injected
# [11] = read-out: EC50 of agonist for TDA constriction, TDAs from Cre^+/Panx1^FL mice, tamoxifen-injected (SMC Panx1 knockout)
# [12] = read-out: EC50 of agonist for TDA constriction, TDAs from Cre^+/Panx1^WT mice, tamoxifen-injected
# [13] = read-out: EC50 of agonist for TDA constriction, TDAs from Cre^−/Panx1^FL mice, tamoxifen-injected
# [14] = read-out: EC50 of agonist for TDA constriction, TDAs from Cre^−/Panx1^WT mice, tamoxifen-injected
# [15] = in presence of the named peptide
compound,measurement,setting,value
CCCN(CCC)S(=O)(=O)c1ccc(C(=O)O)cc1 [Probenecid],EMAX of endothelin-1 for TDA constriction,[1]; [5],34.6 ± 4.50 percentage of maximal diameter
same,EMAX of noradrenaline for TDA constriction,[1]; [5],74.9 ± 3.04 percentage of maximal diameter
same,EMAX of phenylephrine for TDA constriction,[1]; [5],72.6 ± 3.51 percentage of maximal diameter
same,EMAX of serotonin for TDA constriction,[1]; [5],39.5 ± 3.29 percentage of maximal diameter
same,effect on contraction of TDA in response to cumulative concentrations of serotonin or endothelin-1,[1]; [6],had no effect
same,effect on phenylephrine- and noradrenaline-mediated contraction of TDA,[1]; [6],significantly inhibited
"CC[C@H](C)[C@H](NC(=O)[C@H](CC(=O)O)NC(=O)[C@H](CC(C)C)NC(=O)[C@H](Cc1c[nH]cn1)NC(=O)[C@@H]1CSSC[C@H](N)C(=O)N[C@@H](CO)C(=O)N[C@H]2CSSC[C@H](NC(=O)[C@H](CCC(=O)O)NC(=O)[C@H](CCCCN)NC(=O)[C@H](CC(=O)O)NC(=O)[C@H](CCSC)NC(=O)[C@H](CC(C)C)NC(=O)[C@H](CO)NC(=O)[C@H](CO)NC2=O)C(=O)N[C@@H](C(C)C)C(=O)N[C@@H](Cc2ccc(O)cc2)C(=O)N[C@@H](Cc2ccccc2)C(=O)N1)C(=O)N[C@H](C(=O)N[C@@H](Cc1c[nH]c2ccccc12)C(=O)O)[C@@H](C)CC [Endothelin-1, endothelin-1]",ATP release from intact TDAs in response to agonist,[2],neither serotonin nor endothelin-1 promoted ATP release
same,EMAX of agonist for TDA constriction,[3]; [7],38.9 ± 6.90 percentage of maximal diameter
same,EMAX of agonist for TDA constriction,[3]; [8],42.5 ± 4.82 percentage of maximal diameter
same,EMAX of agonist for TDA constriction,[3]; [9],42.2 ± 6.50 percentage of maximal diameter
same,EMAX of agonist for TDA constriction,[3]; [10],41.8 ± 4.95 percentage of maximal diameter
same,EC50,[3]; [7],30.1 ± 14.6 nM
same,EC50,[3]; [8],5.64 ± 2.94 nM
same,EC50,[3]; [9],3.77 ± 0.56 nM
same,EC50,[3]; [10],18.4 ± 10.9 nM
NCCc1c[nH]c2ccc(O)cc12 [Serotonin],ATP release from intact TDAs in response to agonist,[2],neither serotonin nor endothelin-1 promoted ATP release
same,EMAX of agonist for TDA constriction,[3]; [7],38.2 ± 5.60 percentage of maximal diameter
same,EMAX of agonist for TDA constriction,[3]; [8],40.1 ± 4.59 percentage of maximal diameter
same,EMAX of agonist for TDA constriction,[3]; [9],30.4 ± 1.78 percentage of maximal diameter
same,EMAX of agonist for TDA constriction,[3]; [10],36.1 ± 2.68 percentage of maximal diameter
same,EC50,[4]; [11],14.2 ± 5.53 nM
same,EC50,[4]; [12],40.7 ± 12.2 nM
same,EC50,[4]; [13],65.2 ± 40.9 nM
same,EC50,[4]; [14],23.8 ± 5.07 nM
"mPanx1 381-IPTSLQTKGE-390 (SEQ ID NO: 6) linked with a TAT sequence (YGRKKQRRR) (also: linked with TAT sequence (YGRKKQRRR), end not given here; UniProt Q9JIP4 381-390, looked up, fragment) [CT2]",effect on phenylephrine-induced constriction of pressurized TDAs,[1],did not affect
same,EMAX of phenylephrine for TDA constriction,[1]; [15],52.3 ± 4.86 percentage of maximal diameter
"NC[C@H](O)c1ccc(O)c(O)c1 [Noradrenaline, noradrenaline]",EMAX of agonist for TDA constriction,[3]; [7],56.4 ± 5.61 percentage of maximal diameter
same,EMAX of agonist for TDA constriction,[3]; [8],48.2 ± 1.82 percentage of maximal diameter
same,EMAX of agonist for TDA constriction,[3]; [9],45.6 ± 5.40 percentage of maximal diameter
same,EMAX of agonist for TDA constriction,[3]; [10],41.4 ± 5.10 percentage of maximal diameter
same,EC50,[4]; [11],50500 ± 24800 nM
same,EC50,[4]; [12],6780 ± 3200 nM
same,EC50,[4]; [13],10300 ± 1300 nM
same,EC50,[4]; [14],6280 ± 1450 nM
"mPanx1 178-VGQSLWEISE-187 (SEQ ID NO: 4) linked with a TAT sequence (YGRKKQRRR) (also: linked with TAT sequence (YGRKKQRRR), end not given here; UniProt Q9JIP4 178-187, looked up, fragment) [IL1]",effect on phenylephrine-induced constriction of pressurized TDAs,[1],did not affect
same,EMAX of phenylephrine for TDA constriction,[1]; [15],32.3 ± 3.81 percentage of maximal diameter
YGRKKQRRR [TAT],effect on phenylephrine-induced constriction of pressurized TDAs,[1],no significant effect
same,EMAX of phenylephrine for TDA constriction,[1]; [15],32.0 ± 6.21 percentage of maximal diameter
same,effect on phenylephrine-induced ATP release from intact TDAs,"[2]; phenylephrine 100 μmol/L, ^10Panx1 300 μmol/L, peptides 3 μmol/L",no effect
